Measurements: article PMC9102502, “The Influence of Selected Antipsychotic Drugs on Biochemical Aspects of Alzheimer’s Disease” (International Journal of Molecular Sciences, 2022)
Read-outs that look alike come from different tables or passages of the source.

Key:
[1] = test system: HUVEC cells; test: WST-1 viability under AAPH-induced oxidative stress, HUVEC; type: cell-based, human; conditions: AAPH 17.5 mmol/L; for viability of HUVEC under AAPH: relative to pure medium control
Protocol: (§1) WST-1 assay (Takara, Takara Bio Europe, Saint-Germain-en-Laye, France) was used to assess the effects of antipsychotics on the growth of HUVEC and astrocytes. The experiments were conducted as described previously. HUVEC were seeded at a density of 7500 cells, and astrocytes at 5000 cells per well on 96-well microplates and cultured for 24 h followed by treatment with compounds at ½ × TPCmax and TPCmax or pure medium as a control (v = 100 μL) for another 24 h (37 °C, 5% CO2). Subsequently, the cells were washed with culture medium (100 μL) and WST-1 reagent diluted in medium (10 μL of reagent + 90 μL of medium) was added. The plates were incubated at 37 °C in 5% CO2 for another 90 min for HUVEC and 60 min for astrocytes. The absorbance was read at 450 nm using a microplate reader (iMARK, Bio-Rad, Hercules, CA, USA). The cells viability was expressed as a percentage of the control samples which constituted 100% viability.
(§2) Moreover, the WST-1 assay was used to evaluate potential protective effects of antipsychotics on the growth of HUVEC and astrocytes under conditions of AAPH-induced oxidative stress. The experimental conditions were the same as in viability studies. AA at the final concentration of 10 μg/mL was used as an antioxidant control. After reaching the confluence, the antipsychotics were added at concentrations equaling ½ × TPCmax and TPCmax. After 1 h incubation under standard conditions, 50 μL AAPH was added to the wells containing tested compounds or AA. The AAPH concentration was chosen on the basis of preliminary experiments—17.5 mmol/L in HUVEC experiments, and 15.0 mmol/L in the case of astrocytes.

[2] = molecular target: AChE (Homo sapiens, UniProt P22303); test: Synergism of antipsychotics with donepezil/rivastigmine (binary mixtures), AChE; conditions: for CI (combination index), AChE: ComboSyn;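 as to all read-outs here: antipsychotic concentration kept fixed across all measurements, selected from estimated therapeutic plasma levels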
Description: (§6) In turn, the concentrations of antipsychotics were constant in every measurement, and were chosen on the basis of estimated therapeutic plasma concentrations.
(§7) Automatic simulation of synergism and antagonism at all doses or effect levels is possible by computer software, based on algorithms. Calculation of the combination index (CI) and isobologram analyses enable to quantitatively determine drug interactions, where CI < 1, =1 and >1 indicate synergism, additive effect and antagonism, respectively. […] The software also allowed us to display the dose–effect curve, the median–effect plot and the dose-reduction index (DRI) plot [36].

[3] = molecular target: T1, human erythrocyte acetylcholinesterase (Homo sapiens, UniProt P22303); test: AChE inhibition, modified Ellman's method; type: biochemical
T1 construct: solution of hemolyzed erythrocytes diluted 400-fold; from tissue; host or cells: hemolyzed erythrocytes from blood of healthy human donors
Protocol: (§3) The activity of both cholinesterases (AChE and BuChE) were assessed spectrophotometrically according to the Ellman’s method with some modifications by Worek et al.. This test development included experimental determination of the optimal testing conditions. For all measurements, 37 °C was used as the best temperature for enzymatic determinations in material of human origin.
(§4) The solution of plasma 200-fold diluted with 0.9% NaCl and solution of hemolyzed erythrocytes diluted 400-fold with 0.9% were incubated (37 °C, 15 min) with 5 μL DTNB (0.01 mol/L) and 10 μL tested compound at a wider range of concentration than the therapeutic range in order to assess the overall effect of the compound on human esterases (AChE and BuChE). The controls without antipsychotics, containing only DTNB and diluted plasma or diluted solution of hemolyzed erythrocytes, were prepared. […] The final volume of a sample was 500 μL. […] The maximal velocity of the reaction was determined on the basis of changes in absorbance over time.
(§5) AChE SI (selectivity index) was calculated by using the following formula: SI = IC50 of BuChE/IC50 of AChE. However, BuChE SI was defined as IC50 of AChE/IC50 of BuChE. Maximal velocity (Vmax) and the Michaelis constant (Km) were calculated with the use of linear regression—according to the Hanes–Woolf plot.

[4] = molecular target: T2, recombinant human β-amyloid (1–42) (Homo sapiens, UniProt P05067); test: Beta-amyloid aggregation, Thioflavin T fluorescence; type: biochemical
T2 construct: recombinant human β-amyloid (1–42; ultrapure); purchased Sigma-Aldrich (St. Louis, MO, USA)
Protocol: Aβ42 peptide was dissolved in DMSO and left to hydrate for a few minutes. The solution was centrifuged at 10,000 rpm for 5 min at 4 °C to separate any precipitated material. The solution at a concentration of 220 μmol/L was stored in small aliquots at a temperature of −30 °C and before each experiment it was restored at 37 °C for 15 min. Test samples containing Aβ42 solution at the final concentration of 20 μmol/L was incubated with antipsychotics at concentrations equaling their TPC and 1/2 × TPC (v = 10 µL). The final volume of the test samples was 100 μL. The positive control constituted a sample of Aβ42 peptide, whereas the negative control contained tannic acid at the final concentrations of 0.1 µmol/L and 10 µmol/L. The fibrillation reaction was set up by addition of thioflavin ThT dye at a concentration of 5 µmol/L. The fluorescence intensity was measured at room temperature with Ex/Em = 440 nm/484 nm (Synergy H1; BioTek, Winooski, VT, USA). The measurements of fluorescence intensity expressed as relative fluorescence units (RFU) were taken at 10, 30, 60 and 90 min and then after 24 and 48 h. The fluorescence intensity measured for control equaled 100% of Aβ aggregation and it was used to estimate the inhibitory properties of the tested antipsychotics.

[5] = molecular target: BuChE (Homo sapiens, UniProt P06276); test: Synergism of antipsychotics with donepezil/rivastigmine (binary mixtures), BuChE;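 also: combination index derived by median-effect analysis of combined drug effects on the cholinesterase, with values below 1 meaning synergism, exactly 1 additivity and above 1 antagonism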
Description: as §6, §7

[6] = test system: astrocytes; test: WST-1 viability under AAPH-induced oxidative stress, astrocytes; type: cell-based, human; conditions: for astrocyte viability compared with the control (pure AAPH): benperidol 5 and 10 μg/L, penfluridol 12.5 μg/L, pimozide 15 μg/L, promazine 25 and 50 μg/L
Protocol: as §1, §2

[7] = molecular target: T3, human plasma butyrylcholinesterase (Homo sapiens, UniProt P06276); test: BuChE inhibition, modified Ellman's method; type: biochemical
T3 construct: The solution of plasma 200-fold diluted with 0.9% NaCl; from tissue; host or cells: citrated plasma from blood of healthy human donors
Protocol: as §3, §4, §5

[8] = TPC (bromperidol 25 μg/L, quetiapine 400 μg/L)
[9] = ½ × TPC (bromperidol 12.5 μg/L, quetiapine 200 μg/L)
[10] = donepezil 0.005 μmol/L + antipsychotic at TPCmax, CI < 1 synergism, > 1 antagonism
[11] = donepezil 0.01 μmol/L + antipsychotic at TPCmax
[12] = donepezil 0.02 μmol/L + antipsychotic at TPCmax
[13] = donepezil 0.05 μmol/L + antipsychotic at TPCmax
[14] = donepezil 0.1 μmol/L + antipsychotic at TPCmax
[15] = rivastigmine 5 μmol/L + antipsychotic at TPCmax
[16] = rivastigmine 10 μmol/L + antipsychotic at TPCmax
[17] = rivastigmine 15 μmol/L + antipsychotic at TPCmax
[18] = rivastigmine 25 μmol/L + antipsychotic at TPCmax
[19] = rivastigmine 40 μmol/L + antipsychotic at TPCmax
[20] = rivastigmine 50 μmol/L + antipsychotic at TPCmax
[21] = rivastigmine 75 μmol/L + antipsychotic at TPCmax
[22] = rivastigmine 100 μmol/L + antipsychotic at TPCmax
[23] = donepezil 2 μmol/L + antipsychotic at TPCmax, ComboSyn
[24] = donepezil 5 μmol/L + antipsychotic at TPCmax, ComboSyn
[25] = donepezil 10 μmol/L + antipsychotic at TPCmax, ComboSyn
[26] = donepezil 20 μmol/L + antipsychotic at TPCmax, ComboSyn
[27] = donepezil 50 μmol/L + antipsychotic at TPCmax, ComboSyn
[28] = donepezil 100 μmol/L + antipsychotic at TPCmax, ComboSyn
[29] = rivastigmine 0.05 μmol/L + antipsychotic at TPCmax, ComboSyn
[30] = rivastigmine 0.1 μmol/L + antipsychotic at TPCmax, ComboSyn
[31] = rivastigmine 0.25 μmol/L + antipsychotic at TPCmax, ComboSyn
[32] = rivastigmine 0.5 μmol/L + antipsychotic at TPCmax, ComboSyn
[33] = rivastigmine 0.75 μmol/L + antipsychotic at TPCmax, ComboSyn
[34] = rivastigmine 1 μmol/L + antipsychotic at TPCmax, ComboSyn
[35] = rivastigmine 2.5 μmol/L + antipsychotic at TPCmax, ComboSyn
[36] = rivastigmine 5 μmol/L + antipsychotic at TPCmax, ComboSyn

Sequence of BuChE (P06276 29-602): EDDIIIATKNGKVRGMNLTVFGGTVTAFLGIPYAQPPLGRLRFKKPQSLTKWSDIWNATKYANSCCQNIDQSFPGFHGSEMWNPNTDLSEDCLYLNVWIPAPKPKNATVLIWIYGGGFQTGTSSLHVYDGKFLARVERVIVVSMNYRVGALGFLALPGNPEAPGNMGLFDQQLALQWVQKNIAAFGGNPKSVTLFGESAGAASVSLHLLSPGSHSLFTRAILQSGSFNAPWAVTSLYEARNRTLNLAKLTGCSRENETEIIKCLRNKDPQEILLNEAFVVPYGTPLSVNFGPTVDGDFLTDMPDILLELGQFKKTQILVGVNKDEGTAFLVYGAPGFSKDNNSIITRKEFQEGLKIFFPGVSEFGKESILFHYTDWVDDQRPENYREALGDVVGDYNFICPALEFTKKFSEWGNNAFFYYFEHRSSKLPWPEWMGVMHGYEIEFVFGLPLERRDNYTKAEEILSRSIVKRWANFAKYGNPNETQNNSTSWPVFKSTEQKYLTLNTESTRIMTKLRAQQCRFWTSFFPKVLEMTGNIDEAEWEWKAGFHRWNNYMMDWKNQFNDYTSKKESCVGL
T3 sequence (P06276 29-602): as above
T1 sequence (P22303 32-617 isoform P22303-2 limits assumed): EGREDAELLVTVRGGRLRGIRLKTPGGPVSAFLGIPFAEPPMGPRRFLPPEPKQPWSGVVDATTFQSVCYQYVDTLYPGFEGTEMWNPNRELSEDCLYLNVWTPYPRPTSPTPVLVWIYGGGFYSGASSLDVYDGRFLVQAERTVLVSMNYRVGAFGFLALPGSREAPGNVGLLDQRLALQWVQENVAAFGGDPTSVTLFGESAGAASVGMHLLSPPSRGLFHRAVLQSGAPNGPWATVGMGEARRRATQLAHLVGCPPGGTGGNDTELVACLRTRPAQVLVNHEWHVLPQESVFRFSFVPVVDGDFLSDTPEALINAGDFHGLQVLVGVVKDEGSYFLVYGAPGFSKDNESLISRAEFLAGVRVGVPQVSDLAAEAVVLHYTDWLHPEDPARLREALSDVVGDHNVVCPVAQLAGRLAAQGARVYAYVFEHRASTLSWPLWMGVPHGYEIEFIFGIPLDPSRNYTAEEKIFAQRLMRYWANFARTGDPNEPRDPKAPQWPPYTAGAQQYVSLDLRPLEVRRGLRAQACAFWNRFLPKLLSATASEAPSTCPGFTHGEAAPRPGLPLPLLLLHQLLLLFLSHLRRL
Sequence of AChE (P22303 32-617 isoform P22303-2 limits assumed): as above
T2 sequence (P05067 672-713 limits assumed): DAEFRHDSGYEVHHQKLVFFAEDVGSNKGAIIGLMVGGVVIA

SMILES	CI (combination index), AChE [2, 10]	CI (combination index), AChE [2, 11]	CI (combination index), AChE [2, 12]	CI (combination index), AChE [2, 13]	CI (combination index), AChE [2, 14]	CI (combination index), AChE [2, 15]	CI (combination index), AChE [2, 16]	CI (combination index), AChE [2, 17]	CI (combination index), AChE [2, 18]	CI (combination index), AChE [2, 19]	CI (combination index), AChE [2, 21]	CI (combination index), AChE [2, 22]	CI (combination index), BuChE [5, 23]	CI (combination index), BuChE [5, 24]	CI (combination index), BuChE [5, 25]	CI (combination index), BuChE [5, 26]	CI (combination index), BuChE [5, 27]	CI (combination index), BuChE [5, 28]	CI (combination index), BuChE [5, 29]	CI (combination index), BuChE [5, 30]	also measured
O=c1[nH]c2ccccc2n1C1CCN(CCCC(c2ccc(F)cc2)c2ccc(F)cc2)CC1 [Pimozide, pimozide]	0.50	0.63	0.62	0.65	0.68	0.26	0.37	0.38	0.47	0.56	0.62	0.65	0.57	0.55	0.78	0.76	0.91	0.79	> 2.50	> 2.50	viability of HUVEC under AAPH [1, 8]: 65.2%; viability of HUVEC under AAPH [1, 9]: 64.2%; CI (combination index), AChE [2, 20]: 0.57; AChE reaction velocity ([3]; 25 µg/L, control 0.263 ± 0.011 A/min): 0.253 ± 0.012 A/min; AChE reaction velocity ([3]; 100 µg/L, control 0.263 ± 0.011 A/min): 0.248 ± 0.009 A/min; effect on Aβ aggregation after a longer incubation time ([4]; 24 and 48 h, both tested concentrations): substantially inhibit; CI (combination index), BuChE [5, 31]: > 2.50; CI (combination index), BuChE [5, 32]: > 2.50; CI (combination index), BuChE [5, 33]: > 2.50; CI (combination index), BuChE [5, 34]: > 2.50; CI (combination index), BuChE [5, 35]: > 2.50; CI (combination index), BuChE [5, 36]: > 2.50; CI (combination index), BuChE ([5]; rivastigmine (0.05–5 µmol/L) / pimozide at TPCmax, beyond the scale of Figure 5B): above 2.5; astrocyte viability compared with the control (pure AAPH) [6]: statistically significant increase
OC1(c2ccc(Cl)c(C(F)(F)F)c2)CCN(CCCC(c2ccc(F)cc2)c2ccc(F)cc2)CC1 [Penfluridol, penfluridol]	0.79	0.80	0.93	0.89	0.90	> 2.50	0.75	0.73	0.92	0.97	1.06	1.06	1.21	0.98	1.04	1.03	1.14	1.21	0.64	0.68	viability of HUVEC under AAPH [1, 8]: 82.9%; viability of HUVEC under AAPH [1, 9]: 80.5%; Effect on IC50 AChE of rivastigmine ([2]; binary mixture vs pure rivastigmine ([…]), ↓ lower, ↑ higher IC50, - no change): does not affect; AChE reaction velocity [3]: 0.226 ± 0.012 A/min; effect on Aβ aggregation within 10–90 min ([4]; 25 µg/L, at any of these time points): does not inhibit; CI (combination index), BuChE [5, 31]: 0.79; CI (combination index), BuChE [5, 32]: 1.01; CI (combination index), BuChE [5, 33]: 1.08; CI (combination index), BuChE [5, 34]: 1.13; CI (combination index), BuChE [5, 35]: 1.28; CI (combination index), BuChE [5, 36]: 1.17; astrocyte viability compared with the control (pure AAPH) [6]: statistically significant increase
O=C(CCCN1CCC(O)(c2ccc(Cl)cc2)CC1)c1ccc(F)cc1 [Haloperidol, haloperidol]	> 2.50	> 2.50	> 2.50	0.37	0.09	0.39	0.55	0.60	0.70	0.71	0.86	0.82	0.71	0.67	0.79	0.77	0.84	0.87	0.61	0.44	CI (combination index), AChE [2, 20]: 0.79; effect on AChE activity ([3]; therapeutic concentrations): do not affect; decrease of BuChE activity ([7]; 100 µg/L): 9.6 ± 2.3%; BuChE reaction velocity ([7]; 100 µg/L, control 0.252 ± 0.022 A/min): 0.228 ± 0.021 A/min; effect on BuChE activity ([7]; therapeutic concentrations): do not affect; effect on Aβ aggregation within 90 min of incubation ([4]; both tested concentrations (½ TPC and TPC)): ceases to significantly inhibit; CI (combination index), BuChE [5, 31]: 0.67; CI (combination index), BuChE [5, 32]: 0.87; CI (combination index), BuChE [5, 33]: 1.06; CI (combination index), BuChE [5, 34]: 1.03; CI (combination index), BuChE [5, 35]: 1.19; CI (combination index), BuChE [5, 36]: 1.22
O=C1O[C@H]([C@@H](O)CO)C(O)=C1O [AA, ascorbic acid]																					viability at 10 µg/mL ([1]; Homo sapiens, HUVEC, 10 μg/mL): 81 ± 3.4%; viability at 10 µg/mL ([6]; Homo sapiens, Astrocyte, 10 μg/mL, AAPH 15 mmol/L): 72.9%
